From ChEMBL document CHEMBL3137667, “[Drug-induced liver injury; fourteenth updated edition of the bibliographic database of liver injuries and related drugs]” (Gastroenterol Clin Biol, 2004)

Legend:
[1] = human
[2] = human; remark: listed apart in the source
[3] = Times to onset, minimal and maximal, observed in the indexed observations. [column 'DELAI' in source]; details: human
[4] = human; remark: listed apart in the source
[5] = human; remark: listed apart in the source
[6] = human; remark: listed apart in the source
[7] = human; remark: listed apart in the source
[8] = human; remark: listed apart in the source
[9] = human; remark: listed apart in the source
[10] = Highest frequency of acute liver toxicity observed during clinical trials, expressed as a percentage. [column '% AIGUE' in source]; details: human
[11] = Highest frequency of moderate liver toxicity observed during clinical trials, expressed as a percentage. [column '% BIOL' in source]; details: human
[12] = Proposed mechanism(s) of liver damage. [column 'MEC' in source]; details: human
[13] = human; remark: listed apart in the source
[14] = Comments (NB not yet translated). [column 'COMMENTAIRES' in source]; details: human
[15] = human, serum, 4383 h
[16] = human, serum
[17] = human, serum; remark: listed apart in the source
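Throughout, for Hepatotoxicity (association with vascular disease): count of indexed literature references reporting vascular liver injury in humans, e.g. peliosis hepatitis, hepatic veno-occlusive disease or Budd-Chiari syndrome.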
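Throughout, for Hepatotoxicity (benign tumour): value is a count of indexed literature references citing a benign tumour confirmed by histopathology.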
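Throughout, for Hepatotoxicity (choleostasis): human cholestatic liver injury, shown by histopathology or by peak ALT or AST elevation over alkaline phosphatase ratio below 2, value counts indexed literature reports.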
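Throughout, for Hepatotoxicity (chronic liver disease): chronic liver injury confirmed by histopathology or persistently raised serum aminotransferase activity beyond 6 months, value given as the count of indexed literature references.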
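Throughout, for Hepatotoxicity (cirrhosis): value is a count of indexed literature references reporting cirrhosis confirmed by histopathology.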
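Throughout, for Hepatotoxicity (cytolytic): human cytolytic liver injury, shown by histopathology or by a ratio above 5 of peak ALT or AST elevation to alkaline phosphatase elevation, value counts indexed references.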
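Throughout, for Hepatotoxicity (granulomatous hepatitis): value is a count of indexed literature references reporting granulomatous liver disease confirmed by histopathology.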
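Throughout, for Hepatotoxicity (malignant tumour): malignant tumour confirmed by histopathology, value gives the count of indexed literature references reporting it.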
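Throughout, for Hepatotoxicity (severe hepatitis): human clinical data: severe hepatitis, meaning potentially life-threatening liver failure or clinically observed cases, the value counts how many indexed literature references report it.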
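Throughout, for Hepatotoxicity (steatosis): steatosis confirmed by histopathology, value is the count of indexed references.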

| SMILES | Hepatotoxicity (malignant tumour) [1] | Hepatotoxicity (cirrhosis) [2] | Hepatotoxicity (time to onset) [3] | Hepatotoxicity (benign tumour) [4] | Hepatotoxicity (choleostasis) [5] | Hepatotoxicity (steatosis) [6] | Hepatotoxicity (association with vascular disease) [7] | Hepatotoxicity (severe hepatitis) [8] | Hepatotoxicity (cytolytic) [9] | Hepatotoxicity (acute) [10] | Hepatotoxicity (moderate) [11] | Hepatotoxicity (mechanism) [12] | Hepatotoxicity (granulomatous hepatitis) [13] | Hepatotoxicity (comment) [14] | Hepatotoxicity (chronic liver disease) [15] | Hepatotoxicity (acute) [16] | Hepatotoxicity (moderate) [17] | other results |
| --- | --- | --- | --- | --- | --- | --- | --- | --- | --- | --- | --- | --- | --- | --- | --- | --- | --- | --- |
| COCCCC/C(=N\OCCN)c1ccc(C(F)(F)F)cc1 [FLUVOXAMINE] | 0 | 0 | 4 days - 4 months | 0 | 2 | 0 | 0 | 0 | 1 | 0% | 0% | Dose-dependant | 0 | SURDOSAGE | 0 | 3 | 5 | – |
| COc1ccc2cc([C@H](C)C(=O)O)ccc2c1 [NAPROXEN] | 0 | 0 | 2 days - 2 months | 0 | – | 1 | 0 | – | – | – | – | – | – | RC/FENOPROFENE | 0 | 19 | 13 | Hepatotoxicity (choleostasis) ([5]; Liver): 8; Hepatotoxicity (severe hepatitis) ([8]; Liver): 4; Hepatotoxicity (cytolytic) ([9]; Liver): 8; Hepatotoxicity (acute) ([10]; Liver): 1.1%; Hepatotoxicity (moderate) ([11]; Liver): 9.5%; Hepatotoxicity (mechanism) ([12]; Liver): Allergic; Hepatotoxicity (granulomatous hepatitis) ([13]; Liver): 1 |
| C[C@H]1c2cccc(O)c2C(=O)C2=C(O)[C@]3(O)C(=O)C(C(N)=O)=C(O)[C@@H](N(C)C)[C@@H]3[C@@H](O)[C@@H]21.O [DOXYCYCLINE] | 0 | 0 | 1 day - 12 years | 0 | 3 | 2 | 0 | 1 | 1 | 0% | 10% | Allergic | 0 | CHOLESTASE_PROLONGEE DUCTOPENIE | 1 | 5 | 8 | – |
| CC(S)C(=O)NCC(=O)O (stereo not drawn) [TIOPRONIN] | 0 | 0 | 19 days - 2 years | 0 | 8 | 1 | 0 | 0 | 1 | 2.1% | 0% | Allergic | 0 | CHOLESTASE_PROLONGEE #CBP | 3 | 10 | 1 | – |
| CC(=O)O[C@H]1C[C@@]2(C)[C@@H](C[C@@H](O)[C@H]3[C@@]4(C)CC[C@@H](O)[C@@H](C)[C@@H]4CC[C@@]32C)/C1=C(\CCC=C(C)C)C(=O)O [FUSIDIC ACID] | 0 | 0 | 2 days - 2 months | 0 | 2 | 0 | 0 | 0 | 0 | 34% | 50% | Dose-dependant | 0 | HYPERBILIRUBINEMIE | 0 | 19 | 12 | – |
| COc1c(N2CCNC(C)C2)c(F)cc2c(=O)c(C(=O)O)cn(C3CC3)c12 (stereo not drawn) [GATIFLOXACIN] | 0 | 0 | 2 days - 8 days | 0 | 2 | 2 | 0 | 1 | 2 | 0% | 6.5% | Allergic | 0 | CHOLESTASE_PROLONGEE DUCTOPENIE | 1 | 3 | 18 | – |
| Fc1ccc([C@@H]2CCNC[C@H]2COc2ccc3c(c2)OCO3)cc1 [PAROXETINE] | 0 | 0 | 6 days - 15 months | 0 | 2 | 0 | 0 | 1 | 5 | 2% | 11% | Allergic | 0 | AC_ANTI-N I/ATRIUM* RC/DOSULEPINE | 1 | 8 | 6 | – |
| Cc1onc(-c2c(Cl)cccc2Cl)c1C(=O)N[C@@H]1C(=O)N2[C@@H]1SC(C)(C)[C@@H]2C(=O)O [DICLOXACILLIN] | 0 | 0 | 5 days - 2 months | 0 | 3 | 0 | 0 | 0 | 0 | 0% | 0% | Allergic | 1 | CHOLESTASE_PROLONGEE | 1 | 4 | 2 | – |
| Cc1c(C)c2c(c(C)c1O)CC[C@@](C)(CCC[C@H](C)CCC[C@H](C)CCCC(C)C)O2 [ALPHA-TOCOPHEROL] | 0 | 0 | 1 week - 2 months | 0 | – | 0 | 0 | – | – | – | – | – | – | CONCERNE_E-FEROL* | 0 | 3 | 0 | Hepatotoxicity (choleostasis) ([5]; Liver): 3; Hepatotoxicity (severe hepatitis) ([8]; Liver): 4; Hepatotoxicity (cytolytic) ([9]; Liver): 3; Hepatotoxicity (acute) ([10]; Liver): 0%; Hepatotoxicity (moderate) ([11]; Liver): 0%; Hepatotoxicity (mechanism) ([12]; Liver): Dose-dependant; Hepatotoxicity (granulomatous hepatitis) ([13]; Liver): 0 |
